US7582664B2, “Acylaminothiazole derivatives, preparation method thereof and use of same in therapeutics” (Sanofi-Aventis, priority 2004, dated 2009)

Molecular target: T1, gamma-secretase (Homo sapiens, UniProt P49768, M146L)
T1 construct: expressed in transfected cells; host or cells: CHO-K1 clone 30-12, co-expressing CT100 of APP and PS1 M146L
Assay: β-amyloid cellular test: inhibition of production of β-amyloid (β-A4) peptide, ELISA of cell supernatants
Format: cell-based
Conditions: line CHO-K1 co-expressing the CT100 of APP and PS1 M146L clone 30-12; incubated 24-25 hours; secreted amyloid peptide by ELISA; read-out: EC50 (50% effective concentration), inhibition of production of the β-amyloid (β-A4) peptide
Excerpt: For the β-amyloid cellular test, the line CHO-K1 co-expressing the CT100 of APP and PS1 M146L clone 30-12 is used. The line targets the inhibition of gamma-secretase. […]
The amount of bound peptide is detected indirectly in the presence of a competitor corresponding to the truncated peptide, the biotin-coupled peptide 1-28, which is then detected with alkaline phosphatase-coupled streptavidin. The substrate, p-nitrophenyl phosphate (pNPP FAST p-Nitrophenyl Phosphate, Sigma N2770) gives a yellow soluble reaction product that can be read at 405 nm. […] After incubation for 30 minutes at room temperature, the reaction is quenched by adding 100 μl per well of 0.1M EDTA and the reading is taken at 405 nm.

EC50: 6 nM
SMILES: CCC[C@H](NC(=O)Cc1cc(F)cc(F)c1)C(=O)Nc1nc(C(=O)OC)c(-c2ccccc2Oc2ccc(F)cc2)s1 [Compound 13, Methyl 2-{2-(S)-[2-(3,5-difluorophenyl)acetylamino]-pentanoyl}amino-5-[2-(4-fluorophenoxy)phenyl]thiazole-4-carboxylate]
